Data published in patent US9260483B2, “Triazacyclononane-based phosphinate ligand and its use for molecular imaging” (TECHNISCHE UNIVERSITÄT MÜNCHEN, priority 2011, dated 2016).
Where two headings read alike, the source gives them in different places.

What was measured:
[1] = target: T1, αvβ3 integrin (Homo sapiens, UniProt P05106+P06756); experiment: In vitro binding assay: displacement of 125I-echistatin on M21 human melanoma cells
T1 construct: endogenous in cells; host or cells: M21 human melanoma cells

[2] = M21 cells, 125I-echistatin, 2 h room temperature, read-out: IC50

T1 sequence (P06756 31-889 limits assumed): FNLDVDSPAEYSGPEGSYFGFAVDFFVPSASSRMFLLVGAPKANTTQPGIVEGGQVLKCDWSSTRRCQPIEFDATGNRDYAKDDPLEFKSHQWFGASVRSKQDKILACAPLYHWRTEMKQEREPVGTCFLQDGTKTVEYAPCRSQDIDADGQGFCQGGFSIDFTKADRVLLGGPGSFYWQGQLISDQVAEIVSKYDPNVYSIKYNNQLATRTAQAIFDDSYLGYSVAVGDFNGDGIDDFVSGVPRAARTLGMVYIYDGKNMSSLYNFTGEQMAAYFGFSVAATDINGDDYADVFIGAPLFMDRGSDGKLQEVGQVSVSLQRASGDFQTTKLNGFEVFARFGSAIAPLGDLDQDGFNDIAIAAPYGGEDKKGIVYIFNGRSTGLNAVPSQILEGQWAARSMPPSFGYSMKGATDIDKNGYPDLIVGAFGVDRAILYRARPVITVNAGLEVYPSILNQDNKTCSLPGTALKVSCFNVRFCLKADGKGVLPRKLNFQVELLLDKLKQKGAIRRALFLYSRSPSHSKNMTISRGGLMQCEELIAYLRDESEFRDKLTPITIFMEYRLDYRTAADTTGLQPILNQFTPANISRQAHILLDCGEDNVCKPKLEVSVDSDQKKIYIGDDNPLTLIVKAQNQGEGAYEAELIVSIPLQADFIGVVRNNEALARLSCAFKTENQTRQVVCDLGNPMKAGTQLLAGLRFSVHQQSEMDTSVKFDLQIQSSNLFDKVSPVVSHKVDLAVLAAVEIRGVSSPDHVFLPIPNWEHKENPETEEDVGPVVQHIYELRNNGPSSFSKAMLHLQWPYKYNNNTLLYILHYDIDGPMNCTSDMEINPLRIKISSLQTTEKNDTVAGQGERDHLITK
T1 sequence (P06756 891-1048 partner limits assumed): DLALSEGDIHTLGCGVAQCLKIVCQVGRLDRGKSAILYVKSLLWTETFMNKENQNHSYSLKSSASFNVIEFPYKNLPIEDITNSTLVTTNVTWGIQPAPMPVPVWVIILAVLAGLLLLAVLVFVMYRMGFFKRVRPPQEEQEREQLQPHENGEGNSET
T1 sequence (P05106 27-788): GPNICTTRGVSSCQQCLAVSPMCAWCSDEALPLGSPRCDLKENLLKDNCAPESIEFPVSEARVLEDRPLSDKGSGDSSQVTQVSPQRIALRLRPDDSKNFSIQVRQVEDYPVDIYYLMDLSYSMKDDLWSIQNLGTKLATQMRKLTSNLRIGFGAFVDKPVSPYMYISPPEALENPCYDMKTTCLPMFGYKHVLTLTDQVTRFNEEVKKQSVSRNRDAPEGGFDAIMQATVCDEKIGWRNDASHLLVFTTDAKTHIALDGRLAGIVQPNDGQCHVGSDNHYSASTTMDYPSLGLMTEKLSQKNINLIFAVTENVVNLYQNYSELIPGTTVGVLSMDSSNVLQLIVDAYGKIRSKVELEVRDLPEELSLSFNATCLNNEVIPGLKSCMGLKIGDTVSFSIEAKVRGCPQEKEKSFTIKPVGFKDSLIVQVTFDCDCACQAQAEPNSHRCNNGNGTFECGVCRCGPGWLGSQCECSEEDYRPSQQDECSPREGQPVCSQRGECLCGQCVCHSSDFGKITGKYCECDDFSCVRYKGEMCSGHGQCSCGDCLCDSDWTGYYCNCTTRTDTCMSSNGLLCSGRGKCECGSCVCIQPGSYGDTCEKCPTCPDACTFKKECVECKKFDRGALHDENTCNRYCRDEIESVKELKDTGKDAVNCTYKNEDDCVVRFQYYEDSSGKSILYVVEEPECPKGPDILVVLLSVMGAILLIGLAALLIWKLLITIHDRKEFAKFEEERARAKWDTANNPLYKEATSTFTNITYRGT

Q: For N=C(N)NCCC[C@@H]1NC(=O)[C@H](CCCCNC(=O)CCP(=O)(O)CN2CCN(CP(=O)(O)CCC(=O)O)CCN(CP(=O)(O)CCC(=O)NCCCC[C@@H]3NC(=O)[C@@H](Cc4ccccc4)NC(=O)[C@H](CC(=O)O)NC(=O)CNC(=O)[C@H](CCCNC(=N)N)NC3=O)CC2)NC(=O)[C@@H](Cc2ccccc2)NC(=O)[C@H](CC(=O)O)NC(=O)CNC1=O [Ga-R2P9], which logP is on record?
A: -4.12 ± 0.06

Q: For CCN=c1cc2oc3cc(NCC)c(C)cc3c(-c3ccccc3C(=O)NCCCCCCNC(=O)CCP(=O)(O)CN3CCN(CP(=O)(O)CCC(=O)NCCCCC4NC(=O)[C@@H](Cc5ccccc5)NC(=O)[C@H](CC(=O)O)NC(=O)CNC(=O)[C@H](CCCNC(=N)N)NC4=O)CCN(CP(=O)(O)CCC(=O)NCCCC[C@@H]4NC(=O)[C@@H](Cc5ccccc5)NC(=O)[C@H](CC(=O)O)NC(=O)CNC(=O)[C@H](CCCNC(=N)N)NC4=O)CC3)c-2cc1C (some centres unmarked) [Compound R2RhoP9], which IC50 ([1]; IC50 (nM)) is on record?
A: 92 nM

Q: For N=C(N)NCCC[C@@H]1NC(=O)[C@H](CCCCNC(=O)CCP(=O)(O)CN2CCN(CP(=O)(O)CCC(=O)O)CCN(CP(=O)(O)CCC(=O)NCCCC[C@@H]3NC(=O)[C@@H](Cc4ccccc4)NC(=O)[C@H](CC(=O)O)NC(=O)CNC(=O)[C@H](CCCNC(=N)N)NC3=O)CC2)NC(=O)[C@@H](Cc2ccccc2)NC(=O)[C@H](CC(=O)O)NC(=O)CNC1=O [Compound R2P9], which IC50 ([1]; IC50 (nM)) is on record?
A: 370 nM

Q: For CCN=c1cc2oc3cc(NCC)c(C)cc3c(-c3ccccc3C(=O)NCCCCCCNC(=O)CCP(=O)(O)CN3CCN(CP(=O)(O)CCC(=O)NCCCC[C@@H]4NC(=O)[C@@H](Cc5ccccc5)NC(=O)[C@H](CC(=O)O)NC(=O)CNC(=O)[C@H](CCCNC(=N)N)NC4=O)CCN(CP(=O)(O)CCC(=O)NCCCC[C@@H]4NC(=O)[C@@H](Cc5ccccc5)NC(=O)[C@H](CC(=O)O)NC(=O)CNC(=O)[C@H](CCCNC(=N)N)NC4=O)CC3)c-2cc1C [Ga-R2RhoP9], which logP is on record?
A: -1.27 ± 0.04

Q: With N=C(N)NCCC[C@@H]1NC(=O)[C@H](CCCCNC(=O)CC[C@H](NC(=O)CCP(=O)(O)CN2CCN(CP(=O)(O)CCC(=O)N[C@@H](CCC(=O)NCCCC[C@@H]3NC(=O)[C@@H](Cc4ccccc4)NC(=O)[C@H](CC(=O)O)NC(=O)CNC(=O)[C@H](CCCNC(=N)N)NC3=O)C(=O)O)CCN(CP(=O)(O)CCC(=O)N[C@@H](CCC(=O)NCCCC[C@@H]3NC(=O)[C@@H](Cc4ccccc4)NC(=O)[C@H](CC(=O)O)NC(=O)CNC(=O)[C@H](CCCNC(=N)N)NC3=O)C(=O)O)CC2)C(=O)O)NC(=O)[C@@H](Cc2ccccc2)NC(=O)[C@H](CC(=O)O)NC(=O)CNC1=O [Compound R3GlutP9] as the molecule, how does the IC50 ([1]; IC50 (nM)) read?
A: 125 nM

Q: Which logP does the source give for N=C(N)NCCC[C@@H]1NC(=O)[C@H](CCCCNC(=O)CCCCCNC(=O)CCP(=O)(O)CN2CCN(CP(=O)(O)CCC(=O)NCCCCCC(=O)NCCCC[C@@H]3NC(=O)[C@@H](Cc4ccccc4)NC(=O)[C@H](CC(=O)O)NC(=O)CNC(=O)[C@H](CCCNC(=N)N)NC3=O)CCN(CP(=O)(O)CCC(=O)NCCCCCC(=O)NCCCC[C@@H]3NC(=O)[C@@H](Cc4ccccc4)NC(=O)[C@H](CC(=O)O)NC(=O)CNC(=O)[C@H](CCCNC(=N)N)NC3=O)CC2)NC(=O)[C@@H](Cc2ccccc2)NC(=O)[C@H](CC(=O)O)NC(=O)CNC1=O [Ga-R3HexP9] here?
A: -3.99 ± 0.13

Q: Which IC50 [1, 2] does the source give for N=C(N)NCCC[C@@H]1NC(=O)[C@H](CCCCNC(=O)CCOCCOCCOCCOCCOCCOCCOCCOCCNC(=O)CCP(=O)(O)CN2CCN(CP(=O)(O)CCC(=O)NCCOCCOCCOCCOCCOCCOCCOCCOCCC(=O)NCCCC[C@@H]3NC(=O)[C@@H](Cc4ccccc4)NC(=O)[C@H](CC(=O)O)NC(=O)CNC(=O)[C@H](CCCNC(=N)N)NC3=O)CCN(CP(=O)(O)CCC(=O)NCCOCCOCCOCCOCCOCCOCCOCCOCCC(=O)NCCCC[C@@H]3NC(=O)[C@@H](Cc4ccccc4)NC(=O)[C@H](CC(=O)O)NC(=O)CNC(=O)[C@H](CCCNC(=N)N)NC3=O)CC2)NC(=O)[C@@H](Cc2ccccc2)NC(=O)[C@H](CC(=O)O)NC(=O)CNC1=O [Compound R3PEG8P9] here?
A: 50 nM

Q: For N=C(N)NCCC[C@@H]1NC(=O)[C@H](CCCCNC(=O)CC[C@H](NC(=O)CCP(=O)(O)CN2CCN(CP(=O)(O)CCC(=O)N[C@@H](CCC(=O)NCCCC[C@@H]3NC(=O)[C@@H](Cc4ccccc4)NC(=O)[C@H](CC(=O)O)NC(=O)CNC(=O)[C@H](CCCNC(=N)N)NC3=O)C(=O)O)CCN(CP(=O)(O)CCC(=O)N[C@@H](CCC(=O)NCCCC[C@@H]3NC(=O)[C@@H](Cc4ccccc4)NC(=O)[C@H](CC(=O)O)NC(=O)CNC(=O)[C@H](CCCNC(=N)N)NC3=O)C(=O)O)CC2)C(=O)O)NC(=O)[C@@H](Cc2ccccc2)NC(=O)[C@H](CC(=O)O)NC(=O)CNC1=O [Ga-R3GlutP9], which logP is on record?
A: -4.03 ± 0.12

Q: For N=C(N)NCCC[C@@H]1NC(=O)[C@H](CCCCNC(=O)CCOCCOCCOCCOCCNC(=O)CCP(=O)(O)CN2CCN(CP(=O)(O)CCC(=O)NCCOCCOCCOCCOCCC(=O)NCCCC[C@@H]3NC(=O)[C@@H](Cc4ccccc4)NC(=O)[C@H](CC(=O)O)NC(=O)CNC(=O)[C@H](CCCNC(=N)N)NC3=O)CCN(CP(=O)(O)CCC(=O)NCCOCCOCCOCCOCCC(=O)NCCCC[C@@H]3NC(=O)[C@@H](Cc4ccccc4)NC(=O)[C@H](CC(=O)O)NC(=O)CNC(=O)[C@H](CCCNC(=N)N)NC3=O)CC2)NC(=O)[C@@H](Cc2ccccc2)NC(=O)[C@H](CC(=O)O)NC(=O)CNC1=O (single isomer, unassigned) [Ga-R3PEG4P9], which logP is on record?
A: -3.9 ± 0.1

Q: With N=C(N)NCCC[C@@H]1NC(=O)[C@H](CCCCNC(=O)CCP(=O)(O)CN2CCN(CP(=O)(O)CCC(=O)O)CCN(CP(=O)(O)CCC(=O)O)CC2)NC(=O)[C@@H](Cc2ccccc2)NC(=O)[C@H](CC(=O)O)NC(=O)CNC1=O [Compound R1P9] as the molecule, how does the IC50 ([1]; IC50 (nM)) read?
A: 2890 nM

Q: What about the IC50 ([1]; log IC50) of the same molecule?
A: 2950 nM

Q: For N=C(N)NCCC[C@@H]1NC(=O)[C@H](CCCCNC(=O)CCP(=O)(O)CN2CCN(CP(=O)(O)CCC(=O)O)CCN(CP(=O)(O)CCC(=O)O)CC2)NC(=O)[C@@H](Cc2ccccc2)NC(=O)[C@H](CC(=O)O)NC(=O)CNC1=O [Ga-R1P9], which logP is on record?
A: -3.91 ± 0.11

Q: Which IC50 [1, 2] does the source give for 19F-galacto-RGD [reference compound] here?
A: 319 nM

Q: And the “log IC50” value ([1]; logarithmic IC50 with logarithmic error, M21 cells, 125I-echistatin, 2 h room temperature)?
A: −6.45 ± 0.157

Q: Which “log IC50” value [1] does the source give for Echistatin [reference compound] here?
A: −9.01 ± 0.033

Q: And the IC50 ([1]; read-out: IC50)?
A: 0.98 nM

Q: For N=C(N)NCCC[C@@H]1NC(=O)[C@H](CCCCNC(=O)CCCCCNC(=O)CC[PH](=O)CN2CCN(CP(=O)(O)CCC(=O)NCCCCCC(=O)NCCCC[C@@H]3NC(=O)[C@H](Cc4ccccc4)NC(=O)[C@H](CC(=O)O)NC(=O)CNC(=O)[C@H](CCCNC(=N)N)NC3=O)CCN(CP(=O)(O)CCC(=O)NCCCCCC(=O)NCCCC[C@@H]3NC(=O)[C@H](Cc4ccccc4)NC(=O)[C@H](CC(=O)O)NC(=O)CNC(=O)[C@H](CCCNC(=N)N)NC3=O)CC2)NC(=O)[C@H](Cc2ccccc2)NC(=O)[C@H](CC(=O)O)NC(=O)CNC1=O (some centres unmarked) [Compound R3HexP9], which IC50 ([1]; IC50 (nM)) is on record?
A: 85 nM
